51 molecules from patent publication US7247734B2 (Vernalis (Cambridge) Limited, priority 2001, dated 2007) can be followed below.

As usually defined, the IC50 is the concentration needed to halve the response being measured.

The target of one assay is T1, yeast HSP90 (Saccharomyces cerevisiae, UniProt P02829).
T1 construct: made in house; host or cells: E. coli
T1 sequence (P02829 whole entry, looked up): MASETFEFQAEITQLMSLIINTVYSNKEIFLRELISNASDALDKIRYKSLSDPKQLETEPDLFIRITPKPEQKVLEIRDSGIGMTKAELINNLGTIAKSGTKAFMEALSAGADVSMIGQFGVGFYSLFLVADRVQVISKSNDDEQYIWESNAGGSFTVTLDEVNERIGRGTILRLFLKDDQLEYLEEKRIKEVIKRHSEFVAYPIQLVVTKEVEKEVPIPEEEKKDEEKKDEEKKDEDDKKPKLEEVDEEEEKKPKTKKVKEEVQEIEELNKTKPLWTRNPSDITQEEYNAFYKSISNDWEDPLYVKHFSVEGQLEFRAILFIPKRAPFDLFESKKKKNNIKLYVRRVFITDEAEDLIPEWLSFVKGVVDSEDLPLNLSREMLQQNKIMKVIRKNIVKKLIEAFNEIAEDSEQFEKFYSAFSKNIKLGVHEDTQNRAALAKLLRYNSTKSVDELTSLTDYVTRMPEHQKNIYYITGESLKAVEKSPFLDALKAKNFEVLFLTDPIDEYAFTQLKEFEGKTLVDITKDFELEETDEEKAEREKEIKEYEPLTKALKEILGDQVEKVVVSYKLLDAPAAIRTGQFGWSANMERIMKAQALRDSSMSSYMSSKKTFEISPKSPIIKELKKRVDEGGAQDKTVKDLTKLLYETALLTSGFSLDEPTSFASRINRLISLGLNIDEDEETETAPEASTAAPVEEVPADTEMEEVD
In words: Malachite green HSP90 ATPase assay. The format is biochemical. The following applies: ATPase IC50, activity range, ATPase assay. The source says:
Two methods have been developed to measure the intrinsic ATPase activity of HSP90, using yeast HSP90 as a model system. The first method utilises a regenerating coupled enzyme assay. The second assay, based on the use of malachite green for the measurement of inorganic phosphate, was designed for high throughput screening (HTS) to identify novel HSP90 inhibitor drug candidates.
Colorimetric assays for the determination of phosphate, based on the formation of a phosphomolybdate complex, can be carried out in a few steps with inexpensive reagents and are well suited to the automation required for high throughput screening (see, e.g., Cogan et al., 1999). Enzymes that release inorganic phosphate are assayed using the reaction of the cationic dye, malachite green, with the a complex formed by a reaction of the inorganic phosphate with molybdate to generate a blue-green colour with an absorbance maximum at 610 nm (see, e.g., Baykov et al., 1988; Harder et al., 1994; Maehama et al., 2000). The method has been used in both high throughput (see, e.g., Rumsfeld et al., 2000) and ultra-high throughput screening formats (see, e.g., Layery et al., 2001) for a variety of non-HSP90 ATPases. However, this method is complicated by the non-enzymatic hydrolysis of ATP in the presence of acidic malachite green reagent, causing an increase in colour (see, e.g., Chan et al., 1986; Henkel et al., 1988). This process is mediated by molybdate and can be overcome by the addition of sodium citrate immediately after the reagent (see, e.g., Lanzetta et al., 1979; Schirmer et al., 1998; Baginski et al., 1975). This modification has been adapted to the 96-well microtitre plate assay previously described for other ATPases (see, e.g., Lanzetta et al., 1979) to produce the following protocol for HSP90 ATPase, which is suitable for high throughput screening.
Chemicals are of the highest purity commercially available and all aqueous solutions are made up in AR water. Because of the need to minimise contamination with inorganic phosphate, precautions should be taken with solutions and apparatus used in the assays. Glassware and pH meters are rinsed with double distilled or deionised water before use and, wherever possible, plastic ware should be used. Gloves are worn for all procedures. • (1) Immulon 96-well (Thermo Labsystems, Basingstoke, UK) or Cliniplate 384-well flat-bottomed polystyrene multiwell plates (Thermo Labsystems). • (2) Assay buffer of (a) 100 mM Tris-HCl, pH 7.4, (b) 20 mM KCl, (c) 6 mM MgCl2. Stored at 4° C. • (3) 0.0812% (w/v) malachite green (M 9636, Sigma Aldrich Ltd., Poole, UK). Stored at room temperature. • (4) 2.32% (w/v) polyvinyl alcohol USP (P 1097, Sigma Aldrich Ltd, Poole, UK) in boiling water (see Comment 1), allowed to cool, and stored at room temperature. • (5) 5.72% (w/v) ammonium molybdate in 6 M hydrochloric acid. Stored at room temperature. • (6) 34% (w/v) sodium citrate. Stored at room temperature. • (7) ATP, disodium salt, special quality (519979, Boehringer Mannheim, Lewes, UK). Stored at 4° C. • (8) E. coli expressed yeast HSP90 protein, purified >95% (see, e.g., Panaretou et al., 1998) and stored at −80° C. as 10 μl aliquots containing 0.5 mg of protein. Method
The following protocol was used: • (1) On the day of use, prepare the malachite green reagent from the stock solutions. Mix (a) 2 parts of malachite green, (b) 1 part of polyvinyl alcohol, (c) 1 part of ammonium molybdate, and (d) 2 parts of water. Initially, the reagent is a dark brown colour, but after standing at room temperature for about 2 h, this becomes a golden yellow colour and is ready for use. • (2) For the high throughput screening assays, the test compounds are dissolved at 200 μM in 2.0% DMSO and contained in daughter plates derived from the chemical libraries. Transfer 5 μl of each sample from the daughter plate to each well of the assay plate using automated equipment (see Comment 3). This represents a final concentration in the well of 40 μM.
As for `COc1ccc(-c2c(-c3cc(Cl)c(O)cc3O)n[nH]c2C(=O)O)cc1` [Example 167, 5-(5-Chloro-2,4-dihydroxy-phenyl)-4-(4-methoxy-phenyl)-2H-pyrazole-3-carboxylic acid], the 50% inhibitory concentration (IC50) was < 50 µM.

Consider `COc1ccc(-c2c(-c3cc(Cl)c(O)cc3O)n[nH]c2C(N)=O)cc1` [Example 172, 5-(5-Chloro-2,4-dihydroxy-phenyl)-4-(4-methoxy-phenyl)-2H-pyrazole-3-carboxylic acid amide], for which the IC50 was < 50 µM.

With `CNC(=O)c1[nH]nc(-c2cc(Cl)c(O)cc2O)c1-c1ccc(OC)cc1` [Example 168, 5-(5-Chloro-2,4-dihydroxy-phenyl)-4-(4-methoxy-phenyl)-2H-pyrazole-3-carboxylic acid methylamide], the IC50 was < 50 µM.

Still in this assay, the particulars now being: Hsp90 IC50, activity class.
Regarding `Cc1[nH]nc(-c2cc(Cl)c(O)cc2O)c1-c1ccc2c(c1)OCCO2` [Example 109], the IC50 was < 10 µM.

In the case of `COc1ccc(-c2c(-c3cc(Br)c(O)cc3O)n[nH]c2C)cc1` [Example 93, 4-Bromo-6-[4-(4-methoxy-phenyl)-5-methyl-1H-pyrazol-3-yl]-benzene-1,3-diol], the IC50 was < 10 µM.

The same assay, now with this note: activity class; read-out: Hsp90 IC50.
Turning to `CCc1cc(-c2n[nH]c(C)c2-c2nc3ccccc3n2C)c(O)cc1O` [Example 82], the IC50 is 10 to 100 µM.

Turning to `Oc1ccc(-c2n[nH]c(C(F)(F)F)c2-c2ccc3c(c2)OCCO3)c(O)c1` [Example 142], the 50% inhibitory concentration (IC50) was > 10 µM.

For the molecule `N#CCCCOc1ccc(-c2cn[nH]c2-c2cc(Cl)c(O)cc2O)cc1` [Example 61], the half-maximal inhibitory concentration (IC50) was < 10 µM.

Take `CCc1cc(-c2n[nH]cc2-c2nc(C)cs2)c(O)cc1OC` [Example 131]: the 50% inhibitory concentration (IC50) is > 10 µM.

Consider `COc1ccccc1-c1c[nH]nc1-c1cc(Cl)c(O)cc1O` [Example 71], for which the half-maximal inhibitory concentration (IC50) was in the range of 10 to 100 µM.

In the case of `Oc1cc(O)c(-c2n[nH]cc2-c2ccc(Br)cc2)cc1Cl` [Example 57], the 50% inhibitory concentration (IC50) was < 10 µM.

With `CCc1cc(-c2n[nH]cc2-c2cscn2)c(O)cc1O` [Example 91], the IC50 lay within 10 to 100 µM.

Consider `COc1ccc(-c2c[nH]nc2-c2ccc(O)cc2O)cc1OC` [Example 51], for which the IC50 lay within 10 to 100 µM.

For `Oc1ccc(-c2[nH]ncc2-c2ccccc2)c(O)c1` [Example 55], the IC50 is 10 to 100 µM.

`Oc1cc(O)c(-c2n[nH]cc2-c2cccc(OCCF)c2)cc1Cl` [Example 67]: the IC50 is < 10 µM.

In the case of `COc1ccc(-c2c(-c3cc(Cl)c(F)cc3O)n[nH]c2C)cc1` [Example 147], the IC50 is > 10 µM.

As for `CCCc1cc(-c2[nH]ncc2-c2ccc(C(=O)OCC)o2)c(O)cc1O` [Example 97], the IC50 lay in the range of 10 to 100 µM.

Consider `Cc1[nH]nc(-c2ccc(O)cc2O)c1-c1ccc2c(c1)OCCCO2` [Example 86], for which the IC50 was > 10 µM.

With `CCc1cc(-c2n[nH]cc2-c2cnn(-c3ccccc3)c2)c(O)cc1O` [Example 145], the IC50 was > 10 µM.

As to `Cc1[nH]nc(-c2cc(F)ccc2O)c1-c1ccc2c(c1)OCCO2` [Example 108], the 50% inhibitory concentration (IC50) is < 10 µM.

Take `Cc1nc(-c2c[nH]nc2-c2ccc(O)cc2O)cs1` [Example 129]: the IC50 is > 10 µM.

Consider `COc1ccc(-c2c(C)n[nH]c2-c2cnc(N)nc2)cc1` [Example 151, 5-[4-(4-Methoxy-phenyl)-5-methyl-2H-pyrazol-3-yl]-pyrimidin-2-ylamine], for which the 50% inhibitory concentration (IC50) is > 10 µM.

Take `Cc1ccc(-n2cc(-c3c[nH]nc3-c3ccc(O)cc3O)cn2)cc1` [Example 136]: the IC50 is > 10 µM.

With `Cc1[nH]nc(-c2ccc(OCC(=O)O)cc2O)c1-c1ccc(F)cc1` [Example 123], the half-maximal inhibitory concentration (IC50) was > 10 µM.

On to `Cc1c(CC(=O)NCc2ccc(-c3c[nH]nc3-c3cc(Cl)c(O)cc3O)cc2)c(=O)oc2cc(N)c(S(=O)(=O)O)cc12` [Example 105], for which the 50% inhibitory concentration (IC50) is < 10 µM.

As to `Cc1n[nH]c(-c2cc(Cl)c(O)cc2O)c1-c1ccc(OCCCC#N)cc1` [Example 70], the IC50 was < 10 µM.

Take `Oc1ccc(-c2[nH]ncc2-c2ccc(Br)cc2)c(O)c1` [Example 56]: the IC50 was > 10 µM.

For the molecule `Cc1[nH]nc(-c2ccc(C#N)cc2)c1-c1ccc2c(c1)OCCO2` [Example 117], the half-maximal inhibitory concentration (IC50) was > 10 µM.

For the molecule `CCc1cc(-c2n[nH]cc2-c2nc(C)cs2)c(O)cc1OCc1cccc(C)c1` [Example 124], the concentration for half-maximal inhibition (IC50) is > 10 µM.

As to `COc1ccc(-c2n[nH]cc2-c2ccc3c(c2)OCCO3)c(O)c1` [Example 122], the IC50 is > 10 µM.

For the molecule `COc1ccc(-c2c(-c3cc(CCc4ccccc4)c(O)cc3O)n[nH]c2C)cc1` [Example 95], the IC50 is < 10 µM.

As for `CCCc1cc(-c2n[nH]cc2-c2ccccc2)c(O)cc1OC` [Example 126], the half-inhibitory concentration (IC50) was > 10 µM.

For `CCc1cc(-c2n[nH]cc2-c2ncc(C)s2)c(O)cc1O` [Example 101], the IC50 is 10 to 100 µM.

On to `N#CCCCCOc1cccc(-c2c[nH]nc2-c2cc(Cl)c(O)cc2O)c1` [Example 155], for which the half-inhibitory concentration (IC50) is < 10 µM.

`CCOc1cc(O)c(-c2n[nH]cc2-c2nc(C)cs2)cc1CC` [Example 130]: the IC50 was > 10 µM.

On to `Cc1[nH]nc(-c2cc(Cl)c(O)c(Cl)c2O)c1-c1ccccc1` [Example 138], for which the IC50 was > 10 µM.

Regarding `CCOC(=O)c1ccc(-c2n[nH]c(C)c2-c2ccc3c(c2)OCCO3)cc1` [Example 114], the half-inhibitory concentration (IC50) is > 10 µM.

Turning to `Cc1[nH]nc(-c2cc(Cl)c(O)cc2O)c1-c1ccc(Br)cc1` [Example 58], the IC50 was < 10 µM.

Take `COc1ccc(-c2c[nH]nc2-c2cc(Cl)c(O)cc2O)cc1OC` [Example 52]: the IC50 was < 10 µM.

As to `Oc1cc(O)c(-c2n[nH]cc2-c2ccccc2)cc1Cl` [Example 53], the half-inhibitory concentration (IC50) was < 10 µM.

The same assay, now with this note: activity range, ATPase assay; read-out: ATPase IC50.
Regarding `CCc1cc(-c2nn(C)cc2-c2ccc(OC)c(OC)c2)c(O)cc1O` [Example 162, 4-[4-(3,4-Dimethoxy-phenyl)-1-methyl-1H-pyrazol-3-yl]-6-ethyl-benzene-1,3-diol], the IC50 is > 50 µM.

With `Cc1[nH]nc(-c2ccc(C(N)=O)cc2)c1-c1ccc2c(c1)OCCO2` [Example 158], the half-maximal inhibitory concentration (IC50) is > 50 µM.

With `CNC(=O)c1ccc(-c2c[nH]nc2-c2cc(Cl)c(O)cc2O)cc1` [Example 180], the IC50 was < 50 µM.

As for `Oc1cc(O)c(-c2n[nH]cc2-c2ccsc2)cc1Cl` [Example 174], the concentration for half-maximal inhibition (IC50) is < 50 µM.

For `Cc1c(-c2ccccc2)c(-c2cc(Cl)c(O)cc2O)nn1C` [Example 164, 4-Chloro-6-(1,5-dimethyl-4-phenyl-1H-pyrazol-3-yl)-benzene-1,3-diol], the IC50 was > 50 µM.

In the case of `Oc1cc(O)c(-c2n[nH]cc2-c2cncnc2)cc1Cl` [Example 177], the IC50 is < 50 µM.

Consider `Cc1[nH]nc(-c2ccc(C(=O)NCC3CCCO3)cc2)c1-c1ccc2c(c1)OCCO2` (stereo not drawn) [Example 159], for which the half-inhibitory concentration (IC50) was > 50 µM.

`Cc1c(-c2ccc(Br)cc2)c(-c2cc(Cl)c(O)cc2O)nn1C` [Example 163]: the IC50 is > 50 µM.

As to `OCCn1cc(-c2ccc(Br)cc2)c(-c2cc(Cl)c(O)cc2O)n1` [Example 166, 4-[4-(4-Bromo-phenyl)-1-(2-hydroxy-ethyl)-1H-pyrazol-3-yl]-6-chloro-benzene-1,3-diol], the IC50 was > 50 µM.

Consider `O=C(O)c1ccc(-c2c[nH]nc2-c2cc(Cl)c(O)cc2O)cc1` [Example 182], for which the half-maximal inhibitory concentration (IC50) is < 50 µM.

The same assay, now with this note: malachite green assay, 1 mM ATP; ±SD if n=3–5; read-out: HSP90 ATPase inhibition IC50.
On to `CCCc1cc(-c2n[nH]c(C)c2-c2ccc3c(c2)OCO3)c(O)cc1O` [CCT018158], for which the half-maximal inhibitory concentration (IC50) is 19 µM.
